Data reported in US9849102B2, “Treatment for reducing inflammation” (ISIFER AB, priority 2010, dated 2017).
Entries after “also recorded” stand apart in the source; their conditions may differ.

What was measured:
Format in all cases: cell-based, human
IL-1β = assay: ELISA of IL-1β in cell medium of endometriosis cells incubated with lidocaine
Description: (§1) During laparotomy, human endometriosis tissue biopsies from endometriosis cysts were obtained from four women during laparotomy. The tissue samples were handled aseptically, transported to the laboratory and frozen in fluid nitrogen to −150° C. The biopsies were later verified histologically as endometriosis tissue. The sampling procedure was approved by the Ethical Committee. The frozen endometriosis tissues were thawed in water at +37° C. and then transferred to test tubes. Two tissue biopsy samples were taken from each endometrioma and prepared as follows: the endometriosis tissue covering the inside of endometriosis cysts was detached from encapsulating fibrous tissue by gentle scraping with a knife. The tissue was then exposed for 0.2% collagenase Type III (Worthington Biochemical Corporation Freehold, N.J., USA) for 2 h. The cell suspension was then centrifuged at 1500 rpm for 10 min. The cells were re-suspended in RPMI 1640 cell culture medium with L-glutamine and phenol red (Invitrogen Ltd), 20% Foetal Bovine serum (Invitrogen Ltd), sodium pyruvate, MEM 100 mM (Invitrogen Ltd), non-essential amino acids (Invitrogen Ltd), heparin 90 μg/ml (Sigma-Aldrich Fine Chemicals St Louis, Mo., USA), penicillin-streptomycin with 10.000 Units/ml penicillin G sodium and 10.000 μg/ml streptomycin sulphate in 0.85% saline (Invitrogen Ltd), Hepes buffer solution 1M (Invitrogen Ltd) and seeded in T-75 cm^2 cell culture flasks (Nunc, Roskilde, Denmark) pre-coated with 0.2% gelatin (Sigma-Aldrich). The culture medium was changed the following day and thereafter once a week. When confluent monolayers were obtained after 3 weeks, the cultures were tryptinized cultures from passages 4 and 6 were frozen in fluid nitrogen to −150° C. and later used for experiments.
(§2) The lidocaine treatments of the cells were performed in duplicates on the endometriosis cells that were used for experiments. […] The production of MCP-1, TNF-α and […] was measured according to the manufacturer's using an enzyme-linked immunosorbent assay (ELISA, Quantikine, R&D Systems, Minneapolis, Minn. 55413, USA).

TNF-α = assay: ELISA of TNF-α production from endometriosis cells incubated with lidocaine
Description: as §1, §2

MCP-1 = assay: ELISA of MCP-1 production from endometriosis cells incubated with lidocaine
Description: as §1, §2

[1] = incubation with lidocaine 1 mg/ml, 24 and 48 h, versus control

SMILES: CCN(CC)CC(=O)Nc1c(C)cccc1C [Lidocaine]
- concentration of IL-1β in the cell medium (in words) (IL-1β; before and after incubation with lidocaine): at a low level
- IL-1β in Lidocaine medium 24 h (IL-1β; human endometriosis cell culture medium, lidocaine hydrochloride 1 mg/ml, 24 h, control medium 24 h <5.00): <5.00 pg/mL
- IL-1β in Lidocaine medium 48 h (IL-1β; human endometriosis cell culture medium, lidocaine hydrochloride 1 mg/ml, 48 h, control medium 48 h <5.00): <5.00 pg/mL
- TNF-α in Lidocaine medium 24 h (TNF-α; human endometriosis cell culture medium, lidocaine hydrochloride 1 mg/ml, 24 h, control medium 24 h 8.2): 9.4 pg/mL
- TNF-α in Lidocaine medium 48 h (TNF-α; human endometriosis cell culture medium, lidocaine hydrochloride 1 mg/ml, 48 h, control medium 48 h 10.5): 10.0 pg/mL
- production of TNF-α from endometriosis cells (in words) (TNF-α; [1]): unaffected
- MCP-1 in Lidocaine medium 24 h (MCP-1; human endometriosis cell culture medium, lidocaine hydrochloride 1 mg/ml, 24 h, control medium 24 h 145.0): 62.0 pg/mL
- MCP-1 in Lidocaine medium 48 h (MCP-1; human endometriosis cell culture medium, lidocaine hydrochloride 1 mg/ml, 48 h, control medium 48 h 315.0): 122.0 pg/mL
- MCP-1 production from endometriosis cells (in words) (MCP-1; [1]): substantial reduction; also recorded: seems to be reduced
